From patent publication US9072778B2, “Treatment regimen for N-MYC, c-MYC, and L-MYC amplified and overexpressed tumors” (UNIVERSITY OF HAWAII, priority 2005, dated 2015)

Assays:
MYCN = test: Western blot of MYCN in inhibitor-treated NB cells; type: cell-based, human; conditions: LAN-1 and NMB-7; 5 mM DFMO, 10 μM SAM486A (FIG. 7c)
Source text: It has also been shown that MYCN can regulate p27^Kip1 in NB cells by targeting p27^Kip1 to the proteasome (Nakamura et al., (2003) Cell Death Differ, 10, 230-9, which is incorporated herein by reference in its entirety), and it is therefore possible that the observed increase in p27^Kip1 is in response to a decrease in MYCN. […] The regulation of ODC by MYCN has been previously proposed (Ben-Yosef et al., (1998) Oncogene, 17, 165-71; Lu et al., (2003) Cancer Lett, 197, 125-30; Lutz et al., (1996) Oncogene, 13, 803-12, each of which is incorporated herein by reference in its entirety), but has not been definitively confirmed. The precise mechanism by which polyamines regulate MYCN in NB cells remains to be further clarified.
To further investigate the mechanism that regulates G1 arrest in LAN-1 and NMB-7 cells, and to define the changes in associated protein responses, the cell cycle-related proteins p21^Waf1/Cip1, p27^Kip1, p53, Rb, and MYCN in NB cell lysates were studied. Cells were analyzed on days 1, 2, and 3. Equal amounts of total protein were loaded in all experiments. Proteins were scanned and the ratio of hypophosphorylated Rb (pRb) (lower band):hyperphosphorylated Rb (ppRb) (upper band) was calculated (b). MYCN bands were quantified and normalized relative to β-actin. Values are presented as percentage (%) of controls of day 1, 2 or 3. (c). […]

LAN-1 cells = test: Cell cycle phase distribution (propidium iodide), LAN-1; type: cell-based, human; conditions: DFMO = 5 mM, SAM486A = 10 μM, Spd = 10 μM, mean ± SD
Source text: (§1) This profile, which is typical for cell cycle arrest at G1, was enhanced by the combination of both inhibitors, with the majority of cells in G1 (˜71-73%), a reduced number of cells in S phase (˜20-28%), and a small portion in G2/M (˜2-7%).
(§2) Human NB cell lines were provided by Dr. Robert Seeger (LAN-1; University of California, Los Angeles, Calif.), Dr. Nai-Kong Cheung (NMB-7; Memorial Sloan-Kettering Cancer Center, NY), and the American Type Culture Collection (SK-N-SH; ATCC, Manassas, Va.). Cells were maintained in RPMI 1640 (Biosource, Rockeville, Md.) containing 10% heat-inactivated fetal bovine serum (FBS) (Invitrogen, Carlsbad, Calif.), penicillin (100 IU/ml) and streptomycin (100 μg/ml). If cells were treated with exogenous Spd, 1 mM of aminoguanidine was included as an inhibitor of serum polyamine oxidation. […] For growth and proliferation inhibition, polyamine pool, and cell cycle studies, 10 μM Spd was added together with inhibitors, and cells were assayed on days 2 and/or 3.

NMB-7 cells = test: Cell cycle phase distribution (propidium iodide), NMB-7; type: cell-based, human; conditions: DFMO = 5 mM, SAM486A = 10 μM, Spd = 10 μM, mean ± SD
Source text: as §1, §2

AdoMetDC = biological target: T1, AdoMetDC (Homo sapiens, UniProt P17707); test: AdoMetDC enzyme activity in lysates of inhibitor-treated NB cells; type: cell-based; conditions: for Specific enzyme activity ADOMETDC: DFMO = 5 mM, SAM486A = 10 μM, mean ± SD
T1 construct: processed AdoMetDC α chain (31 kDa) proteins were detected at the expected size in LAN-1 and NMB-7 cells; endogenous in cells; host or cells: LAN-1 and NMB-7 human neuroblastoma cells (LAN-1 only for the Western blot of treated cells)
T1 sequence (P17707 68-334 limits assumed): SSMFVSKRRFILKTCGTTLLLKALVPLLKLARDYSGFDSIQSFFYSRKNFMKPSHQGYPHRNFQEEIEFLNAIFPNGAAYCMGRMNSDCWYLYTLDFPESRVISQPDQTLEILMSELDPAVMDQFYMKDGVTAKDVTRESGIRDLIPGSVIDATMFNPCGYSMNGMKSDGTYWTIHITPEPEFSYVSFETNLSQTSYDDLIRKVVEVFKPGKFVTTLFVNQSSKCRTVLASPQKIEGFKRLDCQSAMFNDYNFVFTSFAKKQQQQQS
T1 sequence (P17707 1-67 limits assumed): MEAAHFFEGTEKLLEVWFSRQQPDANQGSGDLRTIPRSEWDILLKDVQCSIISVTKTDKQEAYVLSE
Description: Under identical experimental conditions, AdoMetDC activity was determined.
as §2
ODC and AdoMetDC enzyme activities were determined using a standard assay known in the art. In brief, NB cells were washed twice with ice-cold PBS and harvested in 50 mM sodium phosphate buffer (pH 7.2), 0.1 mM EDTA, 2.5 mM DTT, supplemented with 1× protease inhibitor cocktail (Roche Molecular Biochemicals, Indianapolis, Ind.). For the measurement of AdoMetDC activity, cells were harvested in the above buffer supplemented with 2.5 mM Put. Cells were lysed by three freeze/thaw cycles and cell lysates were prepared by centrifugation for 20 minutes at 14,000 rpm and 4° C. ODC activity was measured in a reaction mixture that contained 20 μM L-[1-^14C]ornithine (47.70 mCi/mmol; NEN Life Science Products, Boston, Mass.). AdoMetDC activity was assayed in a reaction mixture that contained 8.2 μM S-adenosyl-L-[carboxy-^14C]methionine (58.0-61.0 mCi/mmol; Amersham Biosciences, Piscataway, N.J.) and 140.1 μM cold S-adenosylmethionine. […] Untreated or SAM486A-treated LAN-1 extracts were assayed for AdoMetDC activity after multiple rounds of sequential dilution with harvest buffer followed by concentration of the extract (Centricon YM-10, Millipore Corporation, Bedford, Mass.) to remove the inhibitor.

| Specific enzyme activity ADOMETDC (AdoMetDC; LAN-1, 2 days after treatment) [% OF CONTROL] | Specific enzyme activity ADOMETDC (AdoMetDC; NMB-7, 2 days after treatment) [% OF CONTROL] | increase of measured AdoMetDC activity after sequential dilution and concentration of lysates to remove residual inhibitor (AdoMetDC; SAM486A-treated LAN-1 extracts, data not shown) [fold] | SMILES | MYCN protein (MYCN) | Cell cycle G1 (LAN-1 cells; LAN-1, day 2) [% TOTAL CELLS] | Cell cycle G2/M (LAN-1 cells; LAN-1, day 2) [% TOTAL CELLS] | Cell cycle S (LAN-1 cells; LAN-1, day 2) [% TOTAL CELLS] | Cell cycle G1 (LAN-1 cells; LAN-1, day 3) [% TOTAL CELLS] | Cell cycle G2/M (LAN-1 cells; LAN-1, day 3) [% TOTAL CELLS] | Cell cycle S (LAN-1 cells; LAN-1, day 3) [% TOTAL CELLS] | Cell cycle G1 (NMB-7 cells; NMB-7, day 2) [% TOTAL CELLS] | Cell cycle G2/M (NMB-7 cells; NMB-7, day 2) [% TOTAL CELLS] | Cell cycle S (NMB-7 cells; NMB-7, day 2) [% TOTAL CELLS] | Cell cycle G1 (NMB-7 cells; NMB-7, day 3) [% TOTAL CELLS] | Cell cycle G2/M (NMB-7 cells; NMB-7, day 3) [% TOTAL CELLS] | Cell cycle S (NMB-7 cells; NMB-7, day 3) [% TOTAL CELLS] |
| --- | --- | --- | --- | --- | --- | --- | --- | --- | --- | --- | --- | --- | --- | --- | --- | --- |
| 169 ± 9 | 200 ± 16 | ~100 | N=C(N)c1cccc2c1CC/C2=N\N=C(N)N [SAM486A, 4-amidinoindan-1-one 2′-amidinohydrazone] | almost no effect | 58.7 ± 8.3 | 9.6 ± 3.2 | 31.7 ± 6.8 | 53.3 ± 5.1 | 9.3 ± 2.0 | 37.4 ± 3.5 | 54.1 ± 4.3 | 9.3 ± 3.2 | 36.6 ± 6.0 | 56.4 ± 6.5 | 8.5 ± 1.4 | 35.2 ± 7.0 |
| 689 ± 94 | 582 ± 67 | – | NCCC[C@](N)(C(=O)O)C(F)F [DFMO, α-difluoromethylornithine] | strong downregulation | 62.1 ± 10.4 | 11.5 ± 3.0 | 26.4 ± 7.5 | 63.1 ± 12.2 | 6.2 ± 4.1 | 30.8 ± 8.2 | 60.3 ± 3.9 | 8.4 ± 2.9 | 31.3 ± 6.5 | 58.8 ± 2.6 | 10.2 ± 3.9 | 31.0 ± 6.3 |
